Results as given in patent US20210275577A1, “MOLECULAR HYDROGEN-CONTAINING COMPOSITION FOR REGULATING INTRACELLULAR SIGNAL TRANSDUCTION” (MiZ Company Limited, priority 2020, published 2021).
Where two headings read alike, the source gives them in different places.

What was measured:
[1] = CLP model mice, hydrogen gas treatment group; comparison value 74 mg/dL
Protocol: (§1) Cecal ligation and puncture (CLP) or sham surgery were performed on 9-week-old C57BL/6 male mice. Then, the CLP model mice were forced to inhale a 7% hydrogen gas. The inhalation time were two hours per day for one group and continuous 24 hours for the other group. The mice were housed in a chamber in which the concentration of a hydrogen gas could be maintained by a constant supply of a hydrogen gas from a gas generating apparatus (MHG-2000α manufactured by MiZ Company Limited), and forced to inhale the hydrogen gas therein. The mice in the control group were forced to inhale air not containing hydrogen. Mice were bred under a hydrogen gas atmosphere for one week, and the survival rate was evaluated. The serum inflammatory cytokine levels were evaluated using a Quantikine ELISA Kit (INFO) at 24 hours after CLP. The liver, the intestine, and the lung of mice were evaluated by RNA sequencing after inhalation of a hydrogen gas. Data were analyzed using Ingenuity Pathways Analysis (IPA: Qiagen Inc.). Additionally, expression of inflammatory genes in the intestine was investigated by RT-PCR.

[2] = tested on: IL-6; conditions: 24 hours after CLP
Protocol: as §1

[3] = tested on: TNF-α; conditions: 24 hours after CLP
Protocol: as §1

[4] = tested on: cecal ligation and puncture (CLP) model mice
Protocol: as §1

[5] = tested on: genes related to glycolysis and gluconeogenesis; inflammatory signal transduction pathways
Protocol: as §1

[6] = after inhalation of a hydrogen gas
[7] = room temperature, normal pressure; cited from earlier work

**Q.** What does the source list for `[HH]` [hydrogen gas, molecular hydrogen]?
**A.** blood glucose level [1]: 127 mg/dL; serum IL-6 level [2]: attenuated; serum TNF-α level [3]: attenuated; survival rate ([4]; 7% hydrogen gas, continuous inhalation over 24 hours for 7 days, control 40%, p<0.05, n=20 vs. 20): 75%; survival rate ([4]; continuous inhalation time increased to five hours, 12 hours, and 24 hours): improved; survival rate vs control ([4]; continuous inhalation time per day one hour): no difference from control was observed; survival rate vs control ([4]; continuous inhalation time two hours): differences started to be observed; change in levels of genes vs control ([5]; hydrogen inhalation time two hours or longer per day): differences started to be observed; inflammatory signal transduction pathways (acute phase response signaling, STAT pathway), z-scores ([5]; liver and intestine of the CLP model at 24 hours): inactive; genes related to glycolysis and gluconeogenesis ([5]; liver, GO and pathway enrichment analysis): upregulation; time for hydrogen to reach the liver [6]: ≥ 10 min; time for hydrogen to reach the lung [6]: rapidly; concentration dissolved in water (solubility) [7]: approximately 1.6 ppm
